Reference: patent publication US10758534B2 (Vertex Pharmaceuticals Incorporated, priority 2014, dated 2020)

Molecular target: T1, F508del (Homo sapiens, UniProt P13569, DEL508-508)
T1 construct: expressed in transfected cells
Assay: Protocol 2: FRET membrane potential optical assay (VIPR), identification of correction compounds
Format: cell-based
Settings: Table 3; compounds of Table 1 as modulators of CFTR activity; protocol not stated
Method in brief: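 NIH3T3 mouse fibroblasts stably expressing F508del-CFTR incubated with compound 16 h at 37 °C in serum-free medium, then loaded with CC2-DMPE/DiSBAC2(3) FRET dyes. Channel activated with 10 μM forskolin plus 20 μM genistein in Cl⁻-free (gluconate) bath; depolarisation from Cl⁻ efflux read on VIPR II.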

T1 sequence (P13569 with tags, fused parts or gaps DEL508-508): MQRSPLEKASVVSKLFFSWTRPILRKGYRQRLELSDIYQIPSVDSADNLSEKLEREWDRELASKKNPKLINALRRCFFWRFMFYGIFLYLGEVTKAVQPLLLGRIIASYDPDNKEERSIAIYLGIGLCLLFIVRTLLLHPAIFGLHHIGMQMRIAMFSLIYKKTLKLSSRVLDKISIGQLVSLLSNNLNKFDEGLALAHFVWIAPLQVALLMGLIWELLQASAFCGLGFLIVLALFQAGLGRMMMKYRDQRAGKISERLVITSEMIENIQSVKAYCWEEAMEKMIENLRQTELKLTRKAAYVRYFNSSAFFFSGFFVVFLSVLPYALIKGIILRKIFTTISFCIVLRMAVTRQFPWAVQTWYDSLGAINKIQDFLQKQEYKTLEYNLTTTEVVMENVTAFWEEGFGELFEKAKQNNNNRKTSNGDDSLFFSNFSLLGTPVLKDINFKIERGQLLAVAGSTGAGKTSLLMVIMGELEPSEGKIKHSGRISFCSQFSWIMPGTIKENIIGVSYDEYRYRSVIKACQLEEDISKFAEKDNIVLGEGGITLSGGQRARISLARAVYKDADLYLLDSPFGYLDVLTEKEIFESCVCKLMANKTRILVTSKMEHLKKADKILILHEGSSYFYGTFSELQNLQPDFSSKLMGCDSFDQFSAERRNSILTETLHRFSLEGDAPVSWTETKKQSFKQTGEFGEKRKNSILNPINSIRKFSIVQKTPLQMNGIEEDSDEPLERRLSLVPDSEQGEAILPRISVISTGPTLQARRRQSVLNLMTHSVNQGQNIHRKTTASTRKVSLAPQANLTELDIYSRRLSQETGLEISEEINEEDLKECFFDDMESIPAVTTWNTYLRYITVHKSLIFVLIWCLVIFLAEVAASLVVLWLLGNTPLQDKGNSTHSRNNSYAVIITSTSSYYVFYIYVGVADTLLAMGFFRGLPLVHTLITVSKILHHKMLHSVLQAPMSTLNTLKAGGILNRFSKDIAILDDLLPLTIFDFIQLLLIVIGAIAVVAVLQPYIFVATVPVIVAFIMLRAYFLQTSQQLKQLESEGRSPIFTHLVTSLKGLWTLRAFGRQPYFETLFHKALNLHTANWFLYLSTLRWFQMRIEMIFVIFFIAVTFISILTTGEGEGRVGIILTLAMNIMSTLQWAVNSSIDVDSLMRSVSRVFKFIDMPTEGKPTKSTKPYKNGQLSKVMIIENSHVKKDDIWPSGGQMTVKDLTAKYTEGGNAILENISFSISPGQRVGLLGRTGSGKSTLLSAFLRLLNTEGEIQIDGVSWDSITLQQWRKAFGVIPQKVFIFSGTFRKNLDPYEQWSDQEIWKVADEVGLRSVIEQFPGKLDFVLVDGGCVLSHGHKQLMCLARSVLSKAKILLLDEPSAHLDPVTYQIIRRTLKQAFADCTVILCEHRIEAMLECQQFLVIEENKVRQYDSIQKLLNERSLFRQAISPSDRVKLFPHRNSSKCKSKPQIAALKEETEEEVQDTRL

| Compound | EC30 |
| --- | --- |
| Cc1cc(C)c(Oc2nc(-c3cc(CO)ccc3F)ccc2C(=O)NS(=O)(=O)c2cccc(N)n2)c(C)c1 [Compound 727, N-[(6-amino-2-pyridyl)sulfonyl]-6-[2-fluoro-5-(hydroxymethyl)phenyl]-2-(2,4,6-trimethylphenoxy)pyridine-3-carboxamide] | + (“+” means greater than 10 uM) |
| CC(C)COc1cc(F)cc(-c2ccc(C(=O)NS(=O)(=O)c3ccn[nH]3)c(N3CCC(F)CC3)n2)c1 [Compound 728, 6-(3-fluoro-5-isobutoxy-phenyl)-2-(4-fluoro-1-piperidyl)-N-(1H-pyrazol-5-ylsulfonyl)pyridine-3-carboxamide] | ++ (“++” means between 3 uM and 10 uM) |
| CC(C)Oc1ccc(-c2ccc(C(=O)NS(=O)(=O)c3cccc(N)n3)c(N3CCC4(CCO4)CC3)n2)cn1 [Compound 729, N-[(6-amino-2-pyridyl)sulfonyl]-6-(6-isopropoxy-3-pyridyl)-2-(3-oxa-7-azaspiro[3.5]nonan-7-yl)pyridine-3-carboxamide] | ++ (“++” means between 3 uM and 10 uM) |
| Cc1cc(C)c(Oc2nc(-c3cccc(C)n3)ccc2C(=O)NS(=O)(=O)c2cccc(N)n2)c(C)c1 [Compound 730, N-[(6-amino-2-pyridyl)sulfonyl]-6-(6-methyl-2-pyridyl)-2-(2,4,6-trimethylphenoxy)pyridine-3-carboxamide] | +++ (“+++” means <3 uM) |
| CC(C)Oc1ccc(-c2ccc(C(=O)NS(=O)(=O)c3cccc(N)n3)c(N3CCCCC3c3ccccc3)n2)cn1 (stereo not drawn) [Compound 731, N-[(6-amino-2-pyridyl)sulfonyl]-6-(6-isopropoxy-3-pyridyl)-2-(2-phenyl-1-piperidyl)pyridine-3-carboxamide] | +++ (“+++” means <3 uM) |
| CC(C)Oc1ccc(-c2ccc(C(=O)NS(=O)(=O)c3cccc(N)n3)c(N3CCC4CCCC43)n2)cn1 (stereo not drawn) [Compound 732, 2-(3,3a,4,5,6,6a-hexahydro-2H-cyclopenta[b]pyrrol-1-yl)-N-[(6-amino-2-pyridyl)sulfonyl]-6-(6-isopropoxy-3-pyridyl)pyridine-3-carboxamide] | +++ (“+++” means <3 uM) |
| CC(C)Oc1ccc(-c2ccc(C(=O)NS(=O)(=O)c3cccc(N)n3)c(N3CCC4(CCC4)CC3)n2)cn1 [Compound 733, N-[(6-amino-2-pyridyl)sulfonyl]-2-(7-azaspiro[3.5]nonan-7-yl)-6-(6-isopropoxy-3-pyridyl)pyridine-3-carboxamide] | +++ (“+++” means <3 uM) |
| CC(C)COc1cc(F)cc(-c2ccc(C(=O)NS(=O)(=O)c3ccn[nH]3)c(N3CCCCCC3)n2)c1 [Compound 734, 2-(azepan-1-yl)-6-(3-fluoro-5-isobutoxy-phenyl)-N-(1H-pyrazol-5-ylsulfonyl)pyridine-3-carboxamide] | +++ (“+++” means <3 uM) |
| CC(C)COc1cc(F)cc(-c2ccc(C(=O)NS(=O)(=O)c3cccc(N)n3)c(N3CCCC(C)C3)n2)c1 (stereo not drawn) [Compound 735, N-[(6-amino-2-pyridyl)sulfonyl]-6-(3-fluoro-5-isobutoxy-phenyl)-2-(3-methyl-1-piperidyl)pyridine-3-carboxamide] | +++ (“+++” means <3 uM) |
| CC1CCN(c2nc(-c3ccc(OC(C)C)nc3)ccc2C(=O)NS(=O)(=O)c2cccc(N)n2)CC1 [Compound 736, N-[(6-amino-2-pyridyl)sulfonyl]-6-(6-isopropoxy-3-pyridyl)-2-(4-methyl-1-piperidyl)pyridine-3-carboxamide] | +++ (“+++” means <3 uM) |
| CC1CCN(c2nc(-c3cc(F)cc(OC(C)C)c3)ccc2C(=O)NS(=O)(=O)c2ccc[nH]c2=O)CC1 [Compound 737, 6-(3-fluoro-5-isopropoxy-phenyl)-2-(4-methyl-1-piperidyl)-N-[(2-oxo-1H-pyridin-3-yl)sulfonyl]pyridine-3-carboxamide] | +++ (“+++” means <3 uM) |
| Cc1ccccc1Oc1nc(-c2cc(F)cc(OCC(C)C)c2)ccc1C(=O)NS(=O)(=O)c1ccn[nH]1 [Compound 738, 6-(3-fluoro-5-isobutoxy-phenyl)-2-(2-methylphenoxy)-N-(1H-pyrazol-5-ylsulfonyl)pyridine-3-carboxamide] | +++ (“+++” means <3 uM) |
| CC(C)COc1cc(F)cc(-c2ccc(C(=O)NS(=O)(=O)c3ccn[nH]3)c(N3CCc4ccccc43)n2)c1 [Compound 739, 6-(3-fluoro-5-isobutoxy-phenyl)-2-indolin-1-yl-N-(1H-pyrazol-5-ylsulfonyl)pyridine-3-carboxamide] | ++ (“++” means between 3 uM and 10 uM) |
| CC(C)Oc1ccc(-c2ccc(C(=O)NS(=O)(=O)c3cccc(N)n3)c(N(C)CC3CC3)n2)cn1 [Compound 740, N-[(6-amino-2-pyridyl)sulfonyl]-2-[cyclopropylmethyl(methyl)amino]-6-(6-isopropoxy-3-pyridyl)pyridine-3-carboxamide] | ++ (“++” means between 3 uM and 10 uM) |
| CC(C)Oc1ccc(-c2ccc(C(=O)NS(=O)(=O)c3ccn[nH]3)c(N3CCC[C@H](c4ccccc4)C3)n2)cn1 [Compound 741, 6-(6-isopropoxy-3-pyridyl)-2-[(3R)-3-phenyl-1-piperidyl]-N-(1H-pyrazol-5-ylsulfonyl)pyridine-3-carboxamide] | +++ (“+++” means <3 uM) |
| CC(C)Oc1ccc(-c2ccc(C(=O)NS(=O)(=O)c3cccc(N)n3)c(N3CCC(c4ccccc4)CC3)n2)cn1 [Compound 742, N-[(6-amino-2-pyridyl)sulfonyl]-6-(6-isopropoxy-3-pyridyl)-2-(4-phenyl-1-piperidyl)pyridine-3-carboxamide] | +++ (“+++” means <3 uM) |
| Cc1cc(C)c(Oc2nc(C3CCC(C)CC3)ccc2C(=O)NS(=O)(=O)c2ccc[nH]c2=O)c(C)c1 (stereo not drawn) [Compound 743, 6-(4-methylcyclohexyl)-N-[(2-oxo-1H-pyridin-3-yl)sulfonyl]-2-(2,4,6-trimethylphenoxy)pyridine-3-carboxamide] | +++ (“+++” means <3 uM) |
| Cc1cccc(C)c1Cn1nc(-c2cccc(OC(C)(C)C)c2)cc1C(=O)NS(=O)(=O)c1ccccc1 [Compound 744, N-(benzenesulfonyl)-5-(3-tert-butoxyphenyl)-2-[(2,6-dimethylphenyl)methyl]pyrazole-3-carboxamide] | +++ (“+++” means <3 uM) |
| CC(C)Oc1ccc(-c2ccc(C(=O)NS(=O)(=O)c3cccc(N)n3)c(N3CCCC(F)C3)n2)cn1 (stereo not drawn) [Compound 745, N-[(6-amino-2-pyridyl)sulfonyl]-2-(3-fluoro-1-piperidyl)-6-(6-isopropoxy-3-pyridyl)pyridine-3-carboxamide] | ++ (“++” means between 3 uM and 10 uM) |
| Cc1cc(C)c(Oc2nc(N3CCCC3)ccc2C(=O)NS(=O)(=O)c2cccc(N)n2)c(C)c1 [Compound 746, N-[(6-amino-2-pyridyl)sulfonyl]-6-pyrrolidin-1-yl-2-(2,4,6-trimethylphenoxy)pyridine-3-carboxamide] | +++ (“+++” means <3 uM) |
| CNc1cccc(S(=O)(=O)NC(=O)C2Cc3ccccc3CCN2Cc2c(C)cc(C)cc2C)n1 (stereo not drawn) [Compound 747, N-[[6-(methylamino)-2-pyridyl]sulfonyl]-3-[(2,4,6-trimethylphenyl)methyl]-1,2,4,5-tetrahydro-3-benzazepine-4-carboxamide] | +++ (“+++” means <3 uM) |
| Cc1cc(C)c(Oc2nc(C3CCOCC3)ccc2C(=O)NS(=O)(=O)c2cccc(N)n2)c(C)c1 [Compound 748, N-[(6-amino-2-pyridyl)sulfonyl]-6-tetrahydropyran-4-yl-2-(2,4,6-trimethylphenoxy)pyridine-3-carboxamide] | ++ (“++” means between 3 uM and 10 uM) |
| COC1CCCN(c2nc(-c3cc(F)cc(OCC(C)C)c3)ccc2C(=O)NS(=O)(=O)c2ccn[nH]2)C1 (stereo not drawn) [Compound 749, 6-(3-fluoro-5-isobutoxy-phenyl)-2-(3-methoxy-1-piperidyl)-N-(1H-pyrazol-5-ylsulfonyl)pyridine-3-carboxamide] | +++ (“+++” means <3 uM) |
| CC1CCN(c2nc3c(cc2C(=O)NS(=O)(=O)c2cccc(N)n2)CCCC3(C)C)CC1 [Compound 750, N-[(6-amino-2-pyridyl)sulfonyl]-8,8-dimethyl-2-(4-methyl-1-piperidyl)-6,7-dihydro-5H-quinoline-3-carboxamide] | +++ (“+++” means <3 uM) |
| CC(C)COc1cc(F)cc(-c2ccc(C(=O)NS(=O)(=O)c3cccc(N)n3)c(N3[C@H](C)CC[C@H]3C)n2)c1 [Compound 751, N-[(6-amino-2-pyridyl)sulfonyl]-2-[(2R,5R)-2,5-dimethylpyrrolidin-1-yl]-6-(3-fluoro-5-isobutoxy-phenyl)pyridine-3-carboxamide] | +++ (“+++” means <3 uM) |
| CC1(CNc2nc(C(C)(C)C)ccc2C(=O)NS(=O)(=O)c2ccc(N)cc2)CCOCC1 [Compound 752, N-(4-aminophenyl)sulfonyl-6-tert-butyl-2-[(4-methyltetrahydropyran-4-yl)methylamino]pyridine-3-carboxamide] | ++ (“++” means between 3 uM and 10 uM) |
| CC(C)(C)c1ccc(C(=O)NS(=O)(=O)c2ccc(N)cc2)c(N2CCCCC2)n1 [Compound 753, N-(4-aminophenyl)sulfonyl-6-tert-butyl-2-(1-piperidyl)pyridine-3-carboxamide] | ++ (“++” means between 3 uM and 10 uM) |
| COc1ccc(-c2ccc(C(=O)NS(=O)(=O)c3cccc(N)n3)c(Oc3c(C)cc(C)cc3C)n2)c(OC)n1 [Compound 754, N-[(6-amino-2-pyridyl)sulfonyl]-6-(2,6-dimethoxy-3-pyridyl)-2-(2,4,6-trimethylphenoxy)pyridine-3-carboxamide] | +++ (“+++” means <3 uM) |
| Cn1ccc2cccc(Cn3nc(C(C)(C)C)cc3C(=O)NS(=O)(=O)c3cccc(N)c3)c21 [Compound 755, N-(3-aminophenyl)sulfonyl-5-tert-butyl-2-[(1-methylindol-7-yl)methyl]pyrazole-3-carboxamide] | ++ (“++” means between 3 uM and 10 uM) |
| CC(C)COc1cc(F)cc(-c2ccc(C(=O)NS(=O)(=O)c3ccn[nH]3)c(N3CCCC(C)C3)n2)c1 (stereo not drawn) [Compound 756, 6-(3-fluoro-5-isobutoxy-phenyl)-2-(3-methyl-1-piperidyl)-N-(1H-pyrazol-5-ylsulfonyl)pyridine-3-carboxamide] | +++ (“+++” means <3 uM) |
